# From patent publication US20230116196A1, “METHOD OF TREATING CNS DISORDERS WITH NEU[…] GABAERGIC COMPOUNDS” (priority 2017, published 2023)
# Tests used:
# [1] = target: T1, α4β3δ GABAA receptors (Homo sapiens, UniProt O14764+P28472+P48169); assay: Whole-cell patch clamp: potentiation of GABA EC20 currents at recombinant α4β3δ GABAA receptors; format: cell-based
# T1 construct: expressed in transfected cells; host or cells: CHO cells, transiently transfected (Lipofectamine)
# Procedure: Cellular electrophysiology was used to measure the pharmacological properties of ALLO, ganaxolone and SGE-516 in heterologous cell systems. Compounds were tested for their ability to affect GABA mediated currents at a submaximal agonist dose (GABA EC20=2 μM).
# LTK cells were stably transfected with the α1β2γ2 subunits of the GABA receptor and CHO cells are transiently transfected with the α4β3γ subunits via the Lipofecatamine method. Cells were passaged at a confluence of about 50-80% and then seeded onto 35 mm sterile culture dishes containing 2 ml culture complete medium without antibiotics or antimycotics. Cells were cultivated at a density that enabled the recording of single cells without visible connections to other cells.
# Whole-cell currents were measured with HEKA EPC-10 amplifiers using PatchMaster software. Bath solution for all experiments contained (in mM): NaCl 137, KCl 4, CaCl2 1.8, MgCl2 1, HEPES 10, D-Glucose 10, pH 7.4 with NaOH. Intracellular (pipette) solution contained (in mM): KCl 130, MgCl2 1, Mg-ATP 5, HEPES 10, EGTA 5, pH 7.2 with KOH. During experiments, cells and solutions were maintained at room temperature (19° C.-30° C.). For manual patchclamp recordings, cell culture dishes were placed on the dish holder of the microscope and continuously perfused (1 ml/min) with bath solution. After formation of a Gigaohm seal between the patch electrode and the cell (pipette resistance range: 2.5 MΩ-6.0MΩ; seal resistance range: >1 GΩ) the cell membrane across the pipette tip was ruptured to assure electrical access to the cell interior (whole-cell patch configuration).
# Cells were voltage-clamped at a holding potential of −80 mV. GABAA receptors were activated by 2 μM GABA and compounds were sequentially applied at increasing concentrations for 30 s prior to a 2 s application of GABA. GABA and compounds were applied to cells via the Dynaflow perfusion system (Cellectricon, Sweden). Test compounds were dissolved in DMSO to form 10 mM stock solution and serially diluted to 0.01, 0.1, 1, and 10 μM in bath solution. There was no effect on GABA currents when DMSO was applied to cells at its maximal concentration in solution (0.1%). All concentrations of test compound were tested on each cell. The relative percentage potentiation was defined as the peak amplitude in response to GABA EC20 in the presence of test compound divided by the peak amplitude in response to GABA EC20 alone, multiplied by 100.
# ALLO and ganaxolone are known PAMs of both synaptic and extrasynaptic GABAAR-mediated currents. The ability of candidate compound SGE-516 to act as a PAM was compared to ALLO and ganaxolone using the whole-cell recordings of recombinant human GABAA receptors expressed in mammalian cells. The α1β2γ2 or α4β3δ subunit combinations were chosen as representatives of typical synaptic and extrasynaptic GABAA receptors respectively. Similar to previous reports (Botella et al., 2015), ALLO, ganaxolone and SGE-516 allosterically potentiated currents induced by EC20 concentration of GABA in a concentration-dependent manner in both synaptic- and extrasynaptic-type GABAARs.
# [2] = test system: GABAA receptor α4 and β3 subunits; assay: Biotinylation: cell surface levels of GABAA receptor subunits in hippocampal slices; format: cell-based, mouse; conditions: for GABAA-β3-containing receptors at the plasma membrane / cell surface stability of the β3 subunit: acute hippocampal slices
# Procedure: (§1) Hippocampi were dissected out of acute slices from 8 to 12 week old C57/Bl6 mice and lysed with […] including: 20 mM Tris-HCl, 150 mM NaCl, 5 mM EDTA, 10 mM NaF, 2 mM Na3VO4, 10 mM pyrophosphate, 0.1% SDS and 1% Triton after drug treatment. The β3 subunit was isolated using immunoprecipitation with β3 antibodies, after correction for protein content and the specific activity of labeling. Results were attained by SDS/PAGE followed by autoradiography (Abramian et al., 2010). For biotinylation experiments hippocampi were dissected out of acute slices from 8 to 12 week old C57/Bl6 mice and incubated in artificial cerebrospinal fluid (ACSF) described above at 30° C. for 1 h for recovery before experimentation. Slices were then placed on ice and incubated for 30 min with 1 mg/mL NHS-SS-biotin (Pierce). Excess biotin was removed by a 50 mM glycine quenching buffer, followed by washing of slices three times in ice-cold ACSF. The tissue was snap frozen on dry ice for 5 min, thawed at 4° C. and lysed. The lysates were solubilized with 2% Triton at 4° C. on a rotating wheel for 1 h. The insoluble material was removed by centrifugation, and 350-500 μg of protein lysate were incubated with NeutrAvidin beads (Pierce) for 18-24 h at 4° C. Bound material was eluted with sample buffer and subjected to SDS/PAGE and then immunoblotted with the indicated antibodies. Blots were then quantified using the CCD-based ChemiDoc XRS ? system. Antibodies against the β3 subunit and the phospho-β3 antibody were generated and verified by the laboratory of S.J.M. (Vien et al., 2015).
# Hippocampal slices were treated as outlined above. Treated slices were then subject to biotinylation and lysis, and surface fractions were isolated on immobilized avidin. Surface (S) and total (T) fractions were immunoblotted with α4 and β3 subunit antibodies.
# The ratio of surface/total (S/T) immunoreactivity was then normalized to levels seen in control (100%).
# [3] = test system: GABAA receptor β3 subunit S408/9; assay: Immunoblot of β3 S408/9 phosphorylation in hippocampal slices; format: cell-based, mouse; conditions: 20 min exposure (100 nM in FIG. 6)
# Procedure: Asterisks represent a significant difference from control (ALLO: p<0.01, Student's t-test, n=10 slices, from 10 mice; SGE-516: p<0.05, Student's t-test, n=4 slices, from 4 mice). […] Asterisks represent a significant difference from control (ALLO: p<0.05, Student's t-test, n=8 slices; SGE-516: p<0.05, Student's t-test, n=4 slices).
# as §1
# Treatment of hippocampal slices with SGE-516 increased the phosphorylation of S408/9 measured using pS408/9 antibodies. To produce antibodies specific for phosphorylated S443, rabbits were injected with a synthetic peptide corresponding to residues […] of the murine α4 subunit in which the serine residue corresponding to S443 was chemically phosphorylated; […]. Hippocampal slices were treated with vehicle (Con), or SGE-516 for 20 min. Slices were immunoblotted with pS408/9, β3, or actin antibodies. The ratio of pS408/9/β3 immunoreactivity was then normalized to control slices (100%=the line).
# Hippocampal slices were treated with 100 nM ALLO or P4 (progesterone), and S408/9 phosphorylation was then determined as detailed above, n=4 slices (FIG. 18D). Hippocampal slices were treated with 100 nM ORG (FIG. 18E). S408/9 phosphorylation was examined using immunoblotting. […]
# [4] = potentiation of current at GABA EC20 (2 μM), n = 3
# T1 sequence (P48169 36-554): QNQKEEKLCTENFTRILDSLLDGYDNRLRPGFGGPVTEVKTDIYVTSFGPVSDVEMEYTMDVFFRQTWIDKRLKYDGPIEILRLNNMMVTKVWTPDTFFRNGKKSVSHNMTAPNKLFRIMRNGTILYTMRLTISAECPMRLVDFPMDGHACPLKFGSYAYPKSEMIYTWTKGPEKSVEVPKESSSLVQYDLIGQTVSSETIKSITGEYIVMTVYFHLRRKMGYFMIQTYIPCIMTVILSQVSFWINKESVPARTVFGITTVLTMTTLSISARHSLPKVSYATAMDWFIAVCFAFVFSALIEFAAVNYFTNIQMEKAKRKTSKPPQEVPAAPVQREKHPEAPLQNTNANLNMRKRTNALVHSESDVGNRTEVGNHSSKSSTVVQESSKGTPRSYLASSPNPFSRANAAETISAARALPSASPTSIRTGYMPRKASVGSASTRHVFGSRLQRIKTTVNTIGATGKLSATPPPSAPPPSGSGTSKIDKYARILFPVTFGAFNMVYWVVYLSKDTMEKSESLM
# T1 sequence (P28472 26-473): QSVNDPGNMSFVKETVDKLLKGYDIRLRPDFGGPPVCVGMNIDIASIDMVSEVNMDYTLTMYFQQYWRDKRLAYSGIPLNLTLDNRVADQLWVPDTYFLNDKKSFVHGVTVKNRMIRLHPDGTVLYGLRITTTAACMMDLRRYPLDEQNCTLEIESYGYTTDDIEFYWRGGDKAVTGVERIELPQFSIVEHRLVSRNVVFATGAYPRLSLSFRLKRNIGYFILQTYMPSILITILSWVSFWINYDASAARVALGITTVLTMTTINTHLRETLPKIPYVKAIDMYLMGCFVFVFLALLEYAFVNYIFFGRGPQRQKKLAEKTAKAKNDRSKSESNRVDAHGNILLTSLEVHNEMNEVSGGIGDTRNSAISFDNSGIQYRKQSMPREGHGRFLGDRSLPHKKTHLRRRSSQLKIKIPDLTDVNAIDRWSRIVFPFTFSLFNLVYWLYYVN
# T1 sequence (O14764 25-452): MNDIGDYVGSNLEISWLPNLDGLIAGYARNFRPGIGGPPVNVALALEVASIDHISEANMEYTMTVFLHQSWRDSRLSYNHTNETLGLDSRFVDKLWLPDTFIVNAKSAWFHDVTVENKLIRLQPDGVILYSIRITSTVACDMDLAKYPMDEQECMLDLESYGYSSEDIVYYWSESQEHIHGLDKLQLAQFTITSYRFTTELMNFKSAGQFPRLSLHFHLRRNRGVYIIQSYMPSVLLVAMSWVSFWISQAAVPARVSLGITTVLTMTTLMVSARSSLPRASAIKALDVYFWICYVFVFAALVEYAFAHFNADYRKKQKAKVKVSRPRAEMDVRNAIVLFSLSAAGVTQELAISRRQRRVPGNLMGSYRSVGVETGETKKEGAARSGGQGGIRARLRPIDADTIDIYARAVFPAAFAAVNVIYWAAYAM
Structure (SMILES),"pEC50 ± S.E.M., α4β3δ [1, 4]",GABAA-β3-containing receptors at the plasma membrane / cell surface stability of the β3 subunit ([2]; 100 nM),β3 S408/409 phosphorylation in hippocampal slices [3],"EC50 [1, 4]","Emax ± S.E.M., α4β3δ ([1]; relative percentage potentiation of GABA EC20 current)","plasma membrane levels of GABAARs containing the α4 and β subunits, S/T normalized to control (100%) ([2]; WT mice slices, 100 nM, 20 min)","plasma membrane accumulation of both the α4 and β3 subunits ([2]; hippocampal slices, surface/total)"
"CC(=O)[C@H]1CC[C@H]2[C@@H]3CC[C@H]4C[C@H](O)CC[C@]4(C)[C@H]3CC[C@]12C [ALLO, Allopregnanolone]",7.2 ± 0.3,increases,increases,–,–,–,–
CC(=O)[C@H]1CC[C@H]2[C@@H]3CC[C@H]4C[C@](C)(O)CC[C@]4(C)[C@H]3CC[C@]12C [Ganaxolone],7.0 ± 0.1,–,–,–,–,–,–
C[C@@]1(O)CC[C@@]2(C)[C@H](CC[C@@H]3[C@@H]2CC[C@]2(C)[C@@H](C(=O)Cn4nccn4)CC[C@@H]32)C1 [SGE-516],–,increases,increases,193 nM,505 ± 19%,175-185%,increased
